# Test results published in patent US20110183951A1, “Copper (1) Complex” (priority 2006, published 2011).
# Assays:
# [1] = tested on: rats; test: Bioavailability studies on rats (liver and kidney functions, blood picture, lipid profile); assay type: in vivo
# Excerpt: The study on rats included five groups, group 1 control, 2 receiving cu, group.2 pyrazinic, group 3 complex with large dose, & group 5 receiving complex with small dose.
# [2] = Physical properties: stability of the complex; assay type: physicochemical; settings: solid, when well-dried
# [3] = Physical properties: solubility of the complex; assay type: physicochemical
# Excerpt: Solubility: the complex is insoluble in non-polar solvents, e.g. benzene, carbon tetrachloride, etc., and insoluble in polar solvents: water, methanol, ethanol, acetone, but soluble in these solvents upon heating in inert atmosphere, to prevent oxidation.
# [4] = tested on: rats; test: Toxicity of the complex (LD50, mortality within 24 hrs); assay type: in vivo
# Procedure: Seventy two rats (250+/−2.0 g b.wt) were randomly located into 12 groups of 6 rats each.
# Mortality in each group were recorded within 24 hrs.
# [5] = tested on: muscle weakness (muscle dystrophies, post stroke weakness); test: Clinical trials for treatment of weakness of muscles; assay type: in vivo, human
# Excerpt: The complex used in treatment of muscle weakness for different underlying causes (muscle dystrophies post stroke weakness). […] When the patient reaches the optimum dose, onset of improvement in muscle power is observed within hours of drug intake.
# [6] = tested on: dilated Cardiomyopathy; test: Clinical trials in cardiomyopathy; assay type: in vivo, human; settings: clinically and in ECHO cardiographic measurements
# Excerpt: Improvement is shown both clinically and in the ECHO cardiographic measurements.
# [7] = tested on: male infertility (sperm count, motility); test: Male infertility study, 20 patients; assay type: in vivo, human
# [8] = tested on: fatigue; test: Clinical trials for treatment of fatigue in humans; assay type: in vivo
# [9] = tested on: stem cell differentiation; test: In vivo stem cell, CD4 and CD8 counts before and during medication; settings: before and at regular intervals of medication
# Excerpt: We hypothesized that the drug may have a role in stimulating the stem cells present in the various organs to differentiate. […] In vivo we measured the stem cell count together with CD8 and CD4 cells before, and at regular intervals of medication.
molecule,measurement,setting,value
"O=C(O)c1cnccn1 [pyrazinic, pyrazinic acid, reference compound]",Lipid profile,[1],didn't show significant difference
same,liver and kidney functions versus control,[1],no significant difference
[CuCI (pyrazinic acid)2].2H2O [complex],Stability,[2],sufficiently stable when well-dried
same,Solubility in non-polar solvents,"[3]; e.g. benzene, carbon tetrachloride",insoluble
same,Solubility in polar solvents upon heating,[3]; upon heating in inert atmosphere,soluble
same,Solubility in polar solvents,"[3]; water, methanol, ethanol, acetone",insoluble
same,LD50 (intrapperitoneally),[4]; intraperitoneal,128 mg/kg
same,LD50 (oral),[4]; oral,1104.17 mg/kg
same,Lipid profile,[1],didn't show significant difference
same,liver and kidney functions versus control,[1],no significant difference
same,lymphocytic count (complete blood picture),"[1]; large and small dose groups, not exceeding the normal range",increase of lymphocytic count
same,Clinical improvement in DMS patients,"[5]; affected by age, weight and degree of dystrophy",dose dependant
same,onset of improvement in muscle power,"[5]; at optimum dose, after drug intake",within hours
same,"cases improved, dilated cardiomyopathy due to other causes",[6],80%
same,improvement of dilated Cardiomyopathy secondary to Duchenne muscle dystrophy,[6],improved all cases
same,sperm motility,[7]; all cases,significant improvement of motility
same,azospermic patients who got healthy babies,[7]; among the responders,two of them got healthy babies
same,oligospermia cases who got healthy babies,"[7]; human, in vivo",four cases got also healthy babies
same,sperm count in azospermic patients after treatment,"[7]; responders, within 6 weeks of treatment",1.5-3 millions/hpf
same,sperm count in Oligospermia,[7]; within 1 month of treatment,doubling of the count
same,azospermic patients whose count increased,[7]; within 6 weeks of treatment,seven out of nine
same,muscle pain,[8]; all types of fatigue,relieved the muscle pain
same,physical activity and productivity,[8]; all types of fatigue,increased the physical activity and productivity
same,"agonizing fatigue in Parkinsonism, myositis, disseminated sclerosis","[8]; human, in vivo",improves markedly
same,CD4/CD8,[9],no disturbance
same,CD4 and CD8 number,[9],increase
same,stem cell count,[9],significant decrease
